The text below walks through data of PubChem BioAssay (NCI).

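How tested: cells in 96-well plates exposed to compound for 48 hours at five concentrations. TGI: total growth inhibition.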

The test system of the first assay is K-562 leukemia. Kind of assay: growth of human tumour cells (NCI), 48 h.
As to `O=c1c2cc(S(=O)(=O)Nc3ccccc3Cl)ccc2ncn1NS(=O)(=O)c1ccc(Br)cc1`, the TGI was > 37.5 µM.
With `CC1=C(C(=O)Nc2cccc3c2C(=O)NC3=O)CC(C(=O)Nc2cccc3c2C(=O)NC3=O)=C(C)N1`, the TGI was > 100 µM.
For the compound `N#CC1(C#N)C2CCCCC23OC(=N)C1(C#N)C(c1ccco1)O3` (centres undefined), the TGI was > 100 µM.
For `CC1C2CC(CC(=O)N2)C1(C)C` (centres undefined), the TGI is > 100 µM.
In the case of `CCOC(=O)CCC(NC(=O)Cc1ccc(Nc2nc3ccccc3nc2-c2ccccc2)cc1)C(=O)OCC` (centres undefined), the TGI is > 100 µM.
The compound `Cc1occc1C(=S)Nc1ccc(Cl)c(C(=O)OCC(F)(F)F)c1` yielded a TGI of 59.1 µM.
Regarding `CCOC(=O)NC(C(F)(F)F)(C(F)(F)F)P(=O)(OC(C)C)OC(C)C`, the TGI is > 100 µM.
Regarding `O=C(O)C1CC2C3CCC2C1C3=O` (centres undefined), the TGI was > 100 µM.
The same measure, in the same setting: to `CCOC(=O)C(c1c[nH]c2ccccc12)(c1c[nH]c2ccccc12)c1c[nH]c2ccccc12` belongs 46.8 µM; to `CN(C)c1ccc(-c2c(C#N)c(N)[nH]c(=S)c2C#N)cc1`, > 100 µM.
Regarding `O=c1[nH]c(=O)n(C2OC(CO)C(O)C(F)C2O)cc1F` (centres undefined), the TGI was > 100 µM.
Consider `CCOC(=O)/C(C)=C\[C@@]1(C)O[C@@H](C)[C@@](C)(OC(C)=O)[C@@H]1OC(C)=O`, for which the TGI is > 100 µM.

Another assay concerns MCF7 breast. Kind of assay: growth of human tumour cells (NCI), 48 h.
On to `O=c1c2cc(S(=O)(=O)Nc3ccccc3Cl)ccc2ncn1NS(=O)(=O)c1ccc(Br)cc1`, for which the TGI is > 37.5 µM.
For the compound `CC1=C(C(=O)Nc2cccc3c2C(=O)NC3=O)CC(C(=O)Nc2cccc3c2C(=O)NC3=O)=C(C)N1`, the TGI is > 100 µM.
In turn, `N#CC1(C#N)C2CCCCC23OC(=N)C1(C#N)C(c1ccco1)O3` (centres undefined) displayed a TGI of 54 µM.
`CC1C2CC(CC(=O)N2)C1(C)C` (centres undefined): the TGI was > 100 µM.
Consider `CCOC(=O)CCC(NC(=O)Cc1ccc(Nc2nc3ccccc3nc2-c2ccccc2)cc1)C(=O)OCC` (centres undefined), for which the TGI was > 100 µM.
`Cc1occc1C(=S)Nc1ccc(Cl)c(C(=O)OCC(F)(F)F)c1` displayed a TGI of 43 µM.
For `CCOC(=O)NC(C(F)(F)F)(C(F)(F)F)P(=O)(OC(C)C)OC(C)C`, the TGI was > 100 µM.
For the compound `O=C(O)C1CC2C3CCC2C1C3=O` (centres undefined), the TGI is > 100 µM.
`CCOC(=O)C(c1c[nH]c2ccccc12)(c1c[nH]c2ccccc12)c1c[nH]c2ccccc12` yielded a TGI of 90.2 µM.
Turning to `CN(C)c1ccc(-c2c(C#N)c(N)[nH]c(=S)c2C#N)cc1`, the TGI was > 100 µM.
As for `O=c1[nH]c(=O)n(C2OC(CO)C(O)C(F)C2O)cc1F` (centres undefined), the TGI is > 100 µM.
As for `CCOC(=O)/C(C)=C\[C@@]1(C)O[C@@H](C)[C@@](C)(OC(C)=O)[C@@H]1OC(C)=O`, the TGI was > 100 µM.

Another assay concerns RXF 393 renal. Kind of assay: growth of human tumour cells (NCI), 48 h.
As to `CC1=C(C(=O)Nc2cccc3c2C(=O)NC3=O)CC(C(=O)Nc2cccc3c2C(=O)NC3=O)=C(C)N1`, the TGI is > 100 µM.
On to `N#CC1(C#N)C2CCCCC23OC(=N)C1(C#N)C(c1ccco1)O3` (centres undefined), for which the TGI stood at 59.1 µM.
Consider `CC1C2CC(CC(=O)N2)C1(C)C` (centres undefined), for which the TGI was > 100 µM.
On to `CCOC(=O)CCC(NC(=O)Cc1ccc(Nc2nc3ccccc3nc2-c2ccccc2)cc1)C(=O)OCC` (centres undefined), for which the TGI was 44.8 µM.
As to `CCOC(=O)NC(C(F)(F)F)(C(F)(F)F)P(=O)(OC(C)C)OC(C)C`, the TGI is > 100 µM.
For the compound `O=C(O)C1CC2C3CCC2C1C3=O` (centres undefined), the TGI is > 100 µM.
As for `CCOC(=O)C(c1c[nH]c2ccccc12)(c1c[nH]c2ccccc12)c1c[nH]c2ccccc12`, the TGI was determined as 87.5 µM.
Regarding `CN(C)c1ccc(-c2c(C#N)c(N)[nH]c(=S)c2C#N)cc1`, the TGI is > 100 µM.

The subject of the next assay is RPMI-8226 leukemia. As to the kind of experiment: growth of human tumour cells (NCI), 48 h.
In the case of `O=c1c2cc(S(=O)(=O)Nc3ccccc3Cl)ccc2ncn1NS(=O)(=O)c1ccc(Br)cc1`, the TGI is > 37.5 µM.
`CC1=C(C(=O)Nc2cccc3c2C(=O)NC3=O)CC(C(=O)Nc2cccc3c2C(=O)NC3=O)=C(C)N1`: the TGI is > 100 µM.
The compound `Cc1occc1C(=S)Nc1ccc(Cl)c(C(=O)OCC(F)(F)F)c1` had a TGI of 51.5 µM.
For `CCOC(=O)NC(C(F)(F)F)(C(F)(F)F)P(=O)(OC(C)C)OC(C)C`, the TGI is > 100 µM.
`CCOC(=O)C(c1c[nH]c2ccccc12)(c1c[nH]c2ccccc12)c1c[nH]c2ccccc12`: the TGI stood at 45.7 µM.
Regarding `O=c1[nH]c(=O)n(C2OC(CO)C(O)C(F)C2O)cc1F` (centres undefined), the TGI was > 100 µM.
With `CCOC(=O)/C(C)=C\[C@@]1(C)O[C@@H](C)[C@@](C)(OC(C)=O)[C@@H]1OC(C)=O`, the TGI is > 100 µM.

The next assay has as its system UO-31 renal. Kind of assay: growth of human tumour cells (NCI), 48 h.
With `O=c1c2cc(S(=O)(=O)Nc3ccccc3Cl)ccc2ncn1NS(=O)(=O)c1ccc(Br)cc1`, the TGI is > 37.5 µM.
Regarding `CC1=C(C(=O)Nc2cccc3c2C(=O)NC3=O)CC(C(=O)Nc2cccc3c2C(=O)NC3=O)=C(C)N1`, the TGI was > 100 µM.
On the same count and under the same terms, with `N#CC1(C#N)C2CCCCC23OC(=N)C1(C#N)C(c1ccco1)O3` (centres undefined) the figure was > 100 µM; with `CC1C2CC(CC(=O)N2)C1(C)C` (centres undefined), > 100 µM; with `CCOC(=O)CCC(NC(=O)Cc1ccc(Nc2nc3ccccc3nc2-c2ccccc2)cc1)C(=O)OCC` (centres undefined), > 100 µM.
The compound `Cc1occc1C(=S)Nc1ccc(Cl)c(C(=O)OCC(F)(F)F)c1` displayed a TGI of 39.1 µM.
Consider `CCOC(=O)NC(C(F)(F)F)(C(F)(F)F)P(=O)(OC(C)C)OC(C)C`, for which the TGI was > 100 µM.
Same read-out and setting: with `O=C(O)C1CC2C3CCC2C1C3=O` (centres undefined) the figure was > 100 µM; with `CCOC(=O)C(c1c[nH]c2ccccc12)(c1c[nH]c2ccccc12)c1c[nH]c2ccccc12`, > 100 µM.
`CN(C)c1ccc(-c2c(C#N)c(N)[nH]c(=S)c2C#N)cc1`: the TGI is > 100 µM.
On to `O=c1[nH]c(=O)n(C2OC(CO)C(O)C(F)C2O)cc1F` (centres undefined), for which the TGI was > 100 µM.

Another assay has as its system HCT-15 colon. As to the kind of experiment: growth of human tumour cells (NCI), 48 h.
Consider `O=c1c2cc(S(=O)(=O)Nc3ccccc3Cl)ccc2ncn1NS(=O)(=O)c1ccc(Br)cc1`, for which the TGI is > 37.5 µM.
As to `CC1=C(C(=O)Nc2cccc3c2C(=O)NC3=O)CC(C(=O)Nc2cccc3c2C(=O)NC3=O)=C(C)N1`, the TGI was > 100 µM.
Compound `N#CC1(C#N)C2CCCCC23OC(=N)C1(C#N)C(c1ccco1)O3` (centres undefined) came in with a TGI of 22.5 µM.
`CCOC(=O)CCC(NC(=O)Cc1ccc(Nc2nc3ccccc3nc2-c2ccccc2)cc1)C(=O)OCC` (centres undefined): the TGI is > 100 µM.
